Measurements taken from patent US10259810B2, “N-sulfonylated pyrazolo[3,4-b]pyridin-6-carboxamides and method of use” (AbbVie S.à.r.l., priority 2015, dated 2019).

What was measured:
ΔF508-CFTR [1] = molecular target: T1, ΔF508-CFTR (Homo sapiens, UniProt P13569, DEL508-508); assay: CFTR cell surface levels using HRP-tagged ΔF508-CFTR expressing CFBE cells, intrinsic corrector capacity; format: cell-based; design: % Activation: concentration or dose not given beside the values; settings: HRP-tagged ΔF508-CFTR expressing CFBE41o- cells, compound alone (intrinsic corrector capacity), 20 hours at 33° C.; for EC50: read-out: EC50
T1 construct: host or cells: CFBE41o-, doxycycline-inducible
Summary of the method: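 Read-out: chemiluminescent HRP activity of ECL4-HRP-tagged ΔF508-CFTR at the cell surface, 15 min substrate in dark. Normalized as 100×(sample−DMSO)/(positive control−DMSO).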

ΔF508-CFTR [2] = molecular target: T1, ΔF508-CFTR; assay: CFTR cell surface levels using HRP-tagged ΔF508-CFTR expressing CFBE cells, in the presence of a co-corrector; format: cell-based; settings: HRP-tagged ΔF508-CFTR CFBE cells, in the presence of 3 μM co-corrector; for EC50: read-out: EC50
Summary of the method: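 Chemiluminescent read-out of surface HRP (15 min, dark) after PBS washes. Activity is normalized as 100×(sample−DMSO)/(3 μM co-corrector alone−DMSO).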

T1 sequence (P13569 with tags, fused parts or gaps DEL508-508): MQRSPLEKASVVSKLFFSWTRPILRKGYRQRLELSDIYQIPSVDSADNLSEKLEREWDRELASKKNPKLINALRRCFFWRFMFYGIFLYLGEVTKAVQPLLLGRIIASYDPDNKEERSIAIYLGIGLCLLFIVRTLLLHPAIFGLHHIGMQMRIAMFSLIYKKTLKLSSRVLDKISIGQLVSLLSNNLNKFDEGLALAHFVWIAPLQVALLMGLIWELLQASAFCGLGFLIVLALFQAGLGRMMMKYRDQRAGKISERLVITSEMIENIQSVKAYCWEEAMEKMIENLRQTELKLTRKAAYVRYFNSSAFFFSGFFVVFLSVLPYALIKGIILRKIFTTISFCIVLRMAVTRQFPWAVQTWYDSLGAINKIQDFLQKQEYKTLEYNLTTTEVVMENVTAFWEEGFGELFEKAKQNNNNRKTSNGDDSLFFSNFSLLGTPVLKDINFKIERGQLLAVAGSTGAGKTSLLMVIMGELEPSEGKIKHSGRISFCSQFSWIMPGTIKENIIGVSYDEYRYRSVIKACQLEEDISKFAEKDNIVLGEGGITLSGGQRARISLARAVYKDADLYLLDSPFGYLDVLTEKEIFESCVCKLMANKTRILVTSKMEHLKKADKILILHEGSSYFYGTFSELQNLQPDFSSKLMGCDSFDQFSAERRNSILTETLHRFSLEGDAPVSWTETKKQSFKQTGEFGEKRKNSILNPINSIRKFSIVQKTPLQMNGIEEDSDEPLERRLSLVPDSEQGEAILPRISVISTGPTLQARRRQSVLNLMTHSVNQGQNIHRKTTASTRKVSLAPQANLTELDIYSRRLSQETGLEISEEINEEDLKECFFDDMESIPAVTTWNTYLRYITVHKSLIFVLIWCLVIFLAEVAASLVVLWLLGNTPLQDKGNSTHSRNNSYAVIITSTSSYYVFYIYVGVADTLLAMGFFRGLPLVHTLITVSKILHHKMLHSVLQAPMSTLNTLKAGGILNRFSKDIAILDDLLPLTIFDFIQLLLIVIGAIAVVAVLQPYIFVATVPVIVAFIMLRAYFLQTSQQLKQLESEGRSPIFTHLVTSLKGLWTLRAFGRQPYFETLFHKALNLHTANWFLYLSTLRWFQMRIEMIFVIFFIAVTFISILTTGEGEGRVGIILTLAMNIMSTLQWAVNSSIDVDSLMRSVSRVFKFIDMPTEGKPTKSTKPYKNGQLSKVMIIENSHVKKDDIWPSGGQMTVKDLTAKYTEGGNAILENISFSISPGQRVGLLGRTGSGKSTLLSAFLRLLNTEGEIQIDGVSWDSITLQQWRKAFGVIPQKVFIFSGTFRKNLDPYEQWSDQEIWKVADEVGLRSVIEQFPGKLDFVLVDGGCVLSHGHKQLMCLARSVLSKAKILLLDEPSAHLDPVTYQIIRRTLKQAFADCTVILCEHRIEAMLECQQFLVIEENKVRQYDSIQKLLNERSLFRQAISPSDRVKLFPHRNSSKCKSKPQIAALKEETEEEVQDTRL

In the case of `CC(=O)NCCS(=O)(=O)NC(=O)c1cc(N2CCC(N3CCOCC3)CC2)c2c(C3CCC3)nn(-c3ccc(F)cc3)c2n1` [Compound 574, N-(2-acetamidoethanesulfonyl)-3-cyclobutyl-1-(4-fluorophenyl)-4-[4-(morpholin-4-yl)piperidin-1-yl]-1H-pyrazolo[3,4-b]pyridine-6-carboxamide], the “% Activation” value (ΔF508-CFTR [1]) is reported as 129.9%, the EC50 (ΔF508-CFTR [1]) is reported as 2760 nM and the “% Activation” value (ΔF508-CFTR [2]) is reported as 283.3%. The EC50 (ΔF508-CFTR [2]) was 542 nM.

In the case of `COC[C@H]1CCCN1S(=O)(=O)NC(=O)c1cc(N2CCC(N3CCOCC3)CC2)c2c(C3CCC3)nn(-c3ccc(F)cc3)c2n1` [Compound 577, 3-cyclobutyl-1-(4-fluorophenyl)-N-[(2R)-2-(methoxymethyl)pyrrolidine-1-sulfonyl]-4-[4-(morpholin-4-yl)piperidin-1-yl]-1H-pyrazolo[3,4-b]pyridine-6-carboxamide], the “% Activation” value (ΔF508-CFTR [1]) is reported as 187.15%, the EC50 (ΔF508-CFTR [1]) is reported as 257 nM and the “% Activation” value (ΔF508-CFTR [2]) is reported as 379.3%. It also gave an EC50 (ΔF508-CFTR [2]) of 105 nM.

For `CN(C1CCOCC1)S(=O)(=O)NC(=O)c1cc(N2CCC(N3CCOCC3)CC2)c2c(C3CCC3)nn(-c3ccc(F)cc3)c2n1` [Compound 579, 3-cyclobutyl-1-(4-fluorophenyl)-N-[methyl(oxan-4-yl)sulfamoyl]-4-[4-(morpholin-4-yl)piperidin-1-yl]-1H-pyrazolo[3,4-b]pyridine-6-carboxamide], the “% Activation” value (ΔF508-CFTR [1]) was 205%, the EC50 (ΔF508-CFTR [1]) was 376 nM and the “% Activation” value (ΔF508-CFTR [2]) was 420.5%. It also gave an EC50 (ΔF508-CFTR [2]) of 319 nM.

`O=C(NS(=O)(=O)N1CC(F)(F)C1)c1cc(N2CCC(N3CCOCC3)CC2)c2c(C3CCC3)nn(-c3ccc(F)cc3)c2n1` [Compound 580, 3-cyclobutyl-N-(3,3-difluoroazetidine-1-sulfonyl)-1-(4-fluorophenyl)-4-[4-(morpholin-4-yl)piperidin-1-yl]-1H-pyrazolo[3,4-b]pyridine-6-carboxamide] was tested, and the “% Activation” value (ΔF508-CFTR [1]) was 201.52%, the EC50 (ΔF508-CFTR [1]) was 131 nM and the “% Activation” value (ΔF508-CFTR [2]) was 387.45%. The EC50 (ΔF508-CFTR [2]) was 52.4 nM.

With `C[C@H]1CN(c2cc(C(=O)NS(=O)(=O)N(C)C)nc3c2c(C2CCC2)nn3C2CCCCC2)CCN1Cc1ccccc1` [Compound 581, 4-[(3S)-4-benzyl-3-methylpiperazin-1-yl]-3-cyclobutyl-1-cyclohexyl-N-(dimethylsulfamoyl)-1H-pyrazolo[3,4-b]pyridine-6-carboxamide] the “% Activation” value (ΔF508-CFTR [1]) was 33.38%, the EC50 (ΔF508-CFTR [1]) was 370 nM and the “% Activation” value (ΔF508-CFTR [2]) was 191.3%. It also gave an EC50 (ΔF508-CFTR [2]) of 761 nM.

`C[C@@H]1CN(c2cc(C(=O)NS(=O)(=O)N(C)C)nc3c2c(C2CCC2)nn3C2CCCCC2)CCN1Cc1ccccc1` [Compound 582, 4-[(3R)-4-benzyl-3-methylpiperazin-1-yl]-3-cyclobutyl-1-cyclohexyl-N-(dimethylsulfamoyl)-1H-pyrazolo[3,4-b]pyridine-6-carboxamide] was tested, and the “% Activation” value (ΔF508-CFTR [1]) was 75.38%, the EC50 (ΔF508-CFTR [1]) was 370 nM and the “% Activation” value (ΔF508-CFTR [2]) was 245.15%. The EC50 (ΔF508-CFTR [2]) was 271 nM.

`CN(C)S(=O)(=O)NC(=O)c1cc(N2CCC3(CC2)CCN(C2CC2)CC3)c2c(C3CCC3)nn(-c3ccc(F)cc3)c2n1` [Compound 584, 3-cyclobutyl-4-(9-cyclopropyl-3,9-diazaspiro[5.5]undecan-3-yl)-N-(dimethylsulfamoyl)-1-(4-fluorophenyl)-1H-pyrazolo[3,4-b]pyridine-6-carboxamide] was tested, and the “% Activation” value (ΔF508-CFTR [1]) was 164.3%, the EC50 (ΔF508-CFTR [1]) was 177 nM and the “% Activation” value (ΔF508-CFTR [2]) was 337.55%. For the same compound, the EC50 (ΔF508-CFTR [2]) was 272 nM.

In the case of `COC1CN(C2CCN(c3cc(C(=O)NS(C)(=O)=O)nc4c3c(C3CCC3)nn4-c3ccc(F)cc3)CC2)C1` [Compound 585, 3-cyclobutyl-1-(4-fluorophenyl)-N-(methanesulfonyl)-4-[4-(3-methoxyazetidin-1-yl)piperidin-1-yl]-1H-pyrazolo[3,4-b]pyridine-6-carboxamide], the “% Activation” value (ΔF508-CFTR [1]) is reported as 316.6%, the EC50 (ΔF508-CFTR [1]) is reported as 1240 nM and the “% Activation” value (ΔF508-CFTR [2]) is reported as 509.7%. It also gave an EC50 (ΔF508-CFTR [2]) of 248 nM.

`CS(=O)(=O)NC(=O)c1cc(N2CCC(N3CCCC(C(F)(F)F)C3)CC2)c2c(C3CCC3)nn(-c3ccc(F)cc3)c2n1` (stereo not drawn) [Compound 586, 3-cyclobutyl-1-(4-fluorophenyl)-N-(methanesulfonyl)-4-[3-(trifluoromethyl)[1,4'-bipiperidin]-1'-yl]-1H-pyrazolo[3,4-b]pyridine-6-carboxamide] was tested, and the “% Activation” value (ΔF508-CFTR [1]) was 331.67%, the EC50 (ΔF508-CFTR [1]) was 52.4 nM and the “% Activation” value (ΔF508-CFTR [2]) was 618.65%. It also gave an EC50 (ΔF508-CFTR [2]) of 37.1 nM.

`COC1CCCN(C2CCN(c3cc(C(=O)NS(C)(=O)=O)nc4c3c(C3CCC3)nn4-c3ccc(F)cc3)CC2)C1` (stereo not drawn) [Compound 587, 3-cyclobutyl-1-(4-fluorophenyl)-N-(methanesulfonyl)-4-(3-methoxy[1,4'-bipiperidin]-1'-yl)-1H-pyrazolo[3,4-b]pyridine-6-carboxamide] was tested, and the “% Activation” value (ΔF508-CFTR [1]) was 277.1%, the EC50 (ΔF508-CFTR [1]) was 235 nM and the “% Activation” value (ΔF508-CFTR [2]) was 504.6%. The EC50 (ΔF508-CFTR [2]) was 398 nM.

For `CC1(C)CN(C2CCN(c3cc(C(=O)NS(C)(=O)=O)nc4c3c(C3CCC3)nn4-c3ccc(F)cc3)CC2)CCO1` [Compound 588, 3-cyclobutyl-4-[4-(2,2-dimethylmorpholin-4-yl)piperidin-1-yl]-1-(4-fluorophenyl)-N-(methanesulfonyl)-1H-pyrazolo[3,4-b]pyridine-6-carboxamide], the “% Activation” value (ΔF508-CFTR [1]) was 366.8%, the EC50 (ΔF508-CFTR [1]) was 126 nM and the “% Activation” value (ΔF508-CFTR [2]) was 571.2%. It also gave an EC50 (ΔF508-CFTR [2]) of 29 nM.

With `COCCN(C)C1CCN(c2cc(C(=O)NS(=O)(=O)N(C)C)nc3c2c(C2CCC2)nn3-c2ccc(F)cc2)CC1` [Compound 591, 3-cyclobutyl-N-(dimethylsulfamoyl)-1-(4-fluorophenyl)-4-{4-[(2-methoxyethyl)(methyl)amino]piperidin-1-yl}-1H-pyrazolo[3,4-b]pyridine-6-carboxamide] the “% Activation” value (ΔF508-CFTR [1]) was 189.1%, the EC50 (ΔF508-CFTR [1]) was 795 nM and the “% Activation” value (ΔF508-CFTR [2]) was 384%. For the same compound, the EC50 (ΔF508-CFTR [2]) was 1590 nM.

`CONS(=O)(=O)NC(=O)c1cc(N2CCC(N3CCOCC3)CC2)c2c(C3CCC3)nn(-c3ccc(F)cc3)c2n1` [Compound 592, 3-cyclobutyl-1-(4-fluorophenyl)-N-(methoxysulfamoyl)-4-[4-(morpholin-4-yl)piperidin-1-yl]-1H-pyrazolo[3,4-b]pyridine-6-carboxamide] was tested, and the “% Activation” value (ΔF508-CFTR [1]) was 300.8%, the EC50 (ΔF508-CFTR [1]) was 183 nM and the “% Activation” value (ΔF508-CFTR [2]) was 518.55%. It also gave an EC50 (ΔF508-CFTR [2]) of 56.8 nM.

`CS(=O)(=O)NC(=O)c1cc(C2CCN(C3CCC(F)(F)CC3)CC2)c2c(C3CCC3)nn(-c3ccc(F)cc3)c2n1` [Compound 593, 3-cyclobutyl-4-[1-(4,4-difluorocyclohexyl)piperidin-4-yl]-1-(4-fluorophenyl)-N-(methanesulfonyl)-1H-pyrazolo[3,4-b]pyridine-6-carboxamide] was tested, and the “% Activation” value (ΔF508-CFTR [1]) was 157.8%, the EC50 (ΔF508-CFTR [1]) was 190 nM and the “% Activation” value (ΔF508-CFTR [2]) was 366.7%. The EC50 (ΔF508-CFTR [2]) was 194 nM.

In the case of `CN(C)S(=O)(=O)NC(=O)c1cc(CN2CCC(N3CCOCC3)CC2)c2c(C3CCC3)nn(-c3ccc(F)cc3)c2n1` [Compound 595, 3-cyclobutyl-N-(dimethylsulfamoyl)-1-(4-fluorophenyl)-4-{[4-(morpholin-4-yl)piperidin-1-yl]methyl}-1H-pyrazolo[3,4-b]pyridine-6-carboxamide], the “% Activation” value (ΔF508-CFTR [1]) is reported as 58.87%, the EC50 (ΔF508-CFTR [1]) is reported as 1520 nM and the “% Activation” value (ΔF508-CFTR [2]) is reported as 231.9%. For the same compound, the EC50 (ΔF508-CFTR [2]) was 1430 nM.
